Test results: PMC12406196, “Anticoronavirus Activity of Uridine Glycoconjugates Containing a 1,2,3-Triazole Moiety” (Journal of Medicinal Chemistry, 2025)
“Also recorded” adds a separate entry of the source. Read-outs that look alike come from different tables or passages of the source.

Assays:
[1] = MTS-based cell viability assay in Vero cells; details: African green monkey, 96 h per table footnote, read-out: CC50 (SARS-CoV-2 block)
Protocol: (§1) LR7, LLC-Mk2 or Vero cells were seeded in 96-well plates and cultured overnight. Next, the medium was changed to a new one supplemented with different concentrations (in triplicate) of analyzed compounds. Following the 2 days (LR7 and Vero) or 4 days (LLC-Mk-2) of incubation, CellTiter 96 AQueous nonradioactive cell proliferation assay (Promega) was performed according to the manufacturer’s instruction. The half-maximal cytotoxic concentration (CC50) was calculated as the concentration of a compound needed to reduce cell viability by 50% using GraphPad Prism software (version 5.01, GraphPad Software, San Diego, CA).

[2] = test system: murine hepatitis virus strain A59 (MHV); assay: MHV titer in medium of infected LR7 cells, plaque assay; format: cell-based; details: for dose above which no virus was detectable (MHV titer): LR7 cells, 24 h p.i.; for IC50: Murine coronavirus
Protocol: LR7 or LLC-Mk2 cells were infected at a MOI of 0.01 with MHV and HCoV-NL63, respectively, and treated with selected compounds at a concentration ranging from 0 to 50 μM. Culture supernatants were collected 1 day (MHV) or 4 days (HCoV-NL63) after infection. Virus titer was determined by plaque assay.
(§2) The half-maximum inhibitory concentration value (IC50) indicating the concentration of compound needed to reduce virus titer by 50% in comparison to the control, was evaluated by GraphPad software (version 5.01, GraphPad Software, San Diego, CA).

[3] = test system: human coronavirus strain NL63 (HCoV-NL63); assay: HCoV-NL63 N protein expression in LLC-Mk2 cells, Western blot and densitometry; format: cell-based; details: for HCoV-NL63 N protein level: 50 μM, MOI 0.01, 4 days p.i., Western blot/densitometry
Protocol: LLC-Mk2 monolayers grown in 24-well plates were infected with HCoV-NL63 at an MOI value of 0.01 for 2 h. Unbound virus was removed, and cells were cultured in medium supplemented with different concentrations of compounds. Four days postinfection, cells were collected and lysed in CellLyticM Cell Lysis Reagent (Sigma). Following the protein separation by SDS-PAGE and transfer to PVDF membranes, proteins were immunoblotted using specific mouse anti-N NL63 Abs (Eurofins, Spain) or rabbit anti-β-catenin Abs (Santa Cruz), followed by antimouse or antirabbit secondary antibodies conjugated with HRP. Proteins were visualized and analyzed by chemiluminescence using the UVITEC Cambridge Alliance MINI HD detection system. The densitometric analysis of cells treated with 50 μM dose of a panel of glycoconjugates was performed based on three biological replicates of N and β-catenin immunoblots. The N protein levels were expressed as a percentage relative to DMSO-treated infected cells, while β-catenin levels were expressed as a percentage relative to noninfected control cells. The data were presented as the ratio of N/β-catenin for each sample, normalized accordingly.

[4] = MTS-based cell viability assay in LLC-Mk2 cells; details: Macaca mulatta, read-out: CC50 (HCoV-NL63 block)
Protocol: as §1

SARS-CoV-2 replicon = format: cell-based
HCoV-NL63 RNA synthesis = assay: HCoV-NL63 RNA level in infected LLC-Mk2 cells, RT-PCR; format: cell-based, human coronavirus NL63; details: MOI 0.01, 96 h p.i.
Protocol: LR7 or LLC-Mk2 were cultured in 12-well plate overnight. Next, LR7 cells were infected with MHV at an MOI value of 1 for 1 h or LLC-Mk2 cells were infected with HCoV-NL63 at an MOI value of 0.01 for 2 h. Following removal of unbound virus, cells were cultured with medium supplemented with different concentrations of selected compounds. 8 h p.i. (MHV) or 96 h p.i. (HCoV-NL63) cells were collected and total RNA was isolated by CoV RNA kit (A&A Biotechnology, Poland) according to the manufacturer’s instruction. To evaluate levels of viral RNA in infected cells Qiagen One-Step RT-PCR reaction was performed. Following reverse transcription, the PCR reaction was carried out using primers: F: […], R: […] for amplification of a fragment of HCoV-NL63 genome (position: 26418–26960 bp NC_005831.2) and F: […] and R: […] for amplification of a fragment of MHV genome (position: 30341–30902 bp FJ647225.1). For internal control fragment of β-actin mRNA was reverse transcribed and amplified using primers For: […] and Rev: […].

LR7 cells = assay: MTS-based cell viability assay in LR7 cells; design: species or system mouse; details: 50 μM, uninfected LR7 cells
Protocol: as §1

[5] = MTS-based cell viability assay in LR7 cells; design: species or system mouse; details: mouse, LR7 cells, 48 h, 0–100 μM, read-out: CC50 (MHV block)
Protocol: as §1

[6] = test system: human coronavirus strain NL63 (HCoV-NL63); assay: HCoV-NL63 titer in medium of infected LLC-Mk2 cells, foci-forming assay; format: cell-based; details: for antiviral efficacy against HCoV-NL63 compared with compound 24: dose-response 0–25 μM
Protocol: LR7 or LLC-Mk2 cells were infected at a MOI of 0.01 with MHV and HCoV-NL63, respectively, and treated with selected compounds at a concentration ranging from 0 to 50 μM. Culture supernatants were collected 1 day (MHV) or 4 days (HCoV-NL63) after infection. […]
as §2

SARS-CoV-2 = SARS-CoV-2 infectivity in supernatants of infected Vero cells, plaque assay; format: cell-based; details: for IC50: read-out: IC50 (SARS-CoV-2)
Protocol: Vero cells were seeded in appropriate plates and allowed to reach an approximately 90% confluence. For infection, 200 μL of viral suspension containing 10^5 pfu (SARS-CoV-2 strain SARS-CoV-2/human/Czech Republic/951/2020) was added to each well and incubated for 2 h at 37 °C to allow virus adsorption. After the incubation, the viral medium was removed, and the wells were washed gently with phosphate-buffered saline (PBS). Test compounds were prepared in serial dilutions to final concentrations of 50, 25, 12.5, 6.25, 3.125, and 0 μM in the medium (DMEM containing 2% FBS). The compounds were added in quadruplicate to the infected cells. The plates were then incubated for 48 h at 37 °C. Following the 48 h treatment period, the supernatants were removed, and plaque assays in Vero E6 cells were performed to assess viral titers. Cells were fixed and stained 4 days after infection to visualize plaques, as described previously.
as §2

[7] = test system: murine hepatitis virus strain A59 (MHV); assay: Reduction of MHV cytopathic effect (CPE) in LR7 cells, MTS/PMS readout; format: cell-based; details: for protection against MHV-induced CPE: 50 μM, MOI 0.01, 24 h; for concentration above which MHV-induced CPE was significantly reduced: MOI 0.01, 24 h p.i.
Protocol: LR7 cells were seeded in a 96-well plate and cultured overnight. Next, the cells were infected with MHV at an MOI value of 0.01 in medium without FBS. Following 1 h of incubation, the medium containing the virus was collected and cells were covered with a medium supplemented with different concentrations (in triplicate) of the analyzed compounds or DMSO. 24 h p.i. cells viability was evaluated by CellTiter 96 AQueous nonradioactive cell proliferation assay (Promega) according to the manufacturer’s instruction.

[8] = test system: SC-VLP entry into HEK-hACE2 cells; assay: SARS-CoV-2 VLP (SC-VLP) internalization assay in HEK-hACE2 cells, luciferase; format: cell-based; details: 12.5 μM during SC-VLP production
[9] = virus titer released from LR7 cells, MOI 0.01, 24 h p.i., plaque assay, read-out: IC50 (MHV)
[10] = 96 h, virus titer released from LLC-Mk2 cells, MOI 0.01, 4 days p.i., read-out: IC50 (HCoV-NL63)
[11] = Severe acute respiratory syndrome coronavirus 2, Vero, supplementary CSV, decimal comma
[12] = Severe acute respiratory syndrome coronavirus 2, Vero cells, supernatant 48 h after infection, plaque assay

Row | Structure (SMILES) | CC50 at 96 h [1] [µM] | dose above which no virus was detectable (MHV titer) ([2]; plaque assay) | IC50 [2, 9] [µM] | HCoV-NL63 N protein level [3] | CC50 at 96 h [4] [µM] | inhibition of SARS-CoV-2 replication (replicon) (SARS-CoV-2 replicon) | concentration that effectively suppressed HCoV-NL63 RNA synthesis (HCoV-NL63 RNA synthesis) [µM] | reduction of cell viability (cytotoxicity in uninfected cells) (LR7 cells) | CC50 at 48 h [5] [µM] | IC50 [6, 10] [µM] | IC50 (SARS-CoV-2; [11]) [µM] | IC50 (SARS-CoV-2; [12]) [µM] | protection against MHV-induced CPE [7] | concentration above which MHV-induced CPE was significantly reduced [7] | antiviral efficacy against HCoV-NL63 compared with compound 24 ([6]; LLC-Mk2 cells) | also measured
1 | CC(=O)OC[C@H]1O[C@@H](SCn2cc(COC[C@H]3O[C@@H](n4ccc(=O)[nH]c4=O)[C@H](O[Si](C)(C)C(C)(C)C)[C@@H]3O[Si](C)(C)C(C)(C)C)nn2)[C@H](OC(C)=O)[C@@H](OC(C)=O)[C@@H]1OC(C)=O [Compound 24, 2′,3′-di-O-tert-Butyldimethylsilyl-5′-O-[(1-(2″,3″,4″,6″-tetra-O-acetyl-β-D-glucopyranosylthiomethyl)-1,2-3-triazol-4-yl)-methyl]-uridine] | > 100 | above 6.25 μM | 3.7 | significantly reduced; also recorded: No N protein was detected | 59.1 | inhibited SARS-CoV-2 replication; also recorded: effectively suppressed SARS-CoV-2 replication; also recorded: partial | 6.25 | 10–30% | > 100 | 3.1 | 18.7 | ~18.7 | significantly reduced cell death | above 12.5 μM | – | dose above which HCoV-NL63 viral protein expression was completely inhibited ([3]; 4 days p.i., immunoblot): above 6.25 μM; dose above which HCoV-NL63 viral release was completely inhibited ([6]; LLC-Mk2 cells, 4 days p.i., foci-forming assay): above 6.25 μM
2 | CC(=O)OC[C@H]1O[C@@H](SCc2cn(C[C@H]3O[C@@H](n4ccc(=O)[nH]c4=O)[C@H](O[Si](C)(C)C(C)(C)C)[C@@H]3O[Si](C)(C)C(C)(C)C)nn2)[C@H](OC(C)=O)[C@@H](OC(C)=O)[C@H]1OC(C)=O [Compound 21, 2′,3′-di-O-tert-Butyldimethylsilyl-5′-deoxy-5′-[4-(2″,3″,4″,6″-tetra-O-acetyl-β-D-galactopyranosylthiomethyl)-1,2-3-triazol-1-yl]-uridine] | > 100 | above 6.25 μM | 4.5 | significantly reduced; also recorded: No N protein was detected | 46.7 | – | 12.5 | no detectable toxicity | 65.3 | 5.7 | – | ~19 | significantly reduced cell death; also recorded: nearly eliminating CPE | above 6.25 μM | slightly lower activity | IC50 ([2]; LR7, read-out: IC50 (MHV)): 4.51 µM; reduction of SC-VLP entry compared with the control [8]: 80%; IC50 ([6]; LLC-MK2, read-out: IC50 (HCoV-NL63)): 5.56 µM; IC50 (SARS-CoV-2; Severe acute respiratory syndrome coronavirus 2, Vero): 19 µM
3 | CC(=O)OC[C@H]1O[C@@H](SCc2cn(C[C@H]3O[C@@H](n4ccc(=O)[nH]c4=O)[C@H](O[Si](C)(C)C(C)(C)C)[C@@H]3O[Si](C)(C)C(C)(C)C)nn2)[C@H](OC(C)=O)[C@@H](OC(C)=O)[C@@H]1OC(C)=O [Compound 20, 2′,3′-di-O-tert-Butyldimethylsilyl-5′-deoxy-5′-[4-(2″,3″,4″,6″-tetra-O-acetyl-β-D-glucopyranosylthiomethyl)-1,2-3-triazol-1-yl]-uridine] | > 100 | – | 11.3 | significantly reduced; also recorded: reduction of N, as well as β-catenin levels | > 100 | inhibited SARS-CoV-2 replication; also recorded: effectively suppressed SARS-CoV-2 replication; also recorded: partial | 6.25 | no detectable toxicity | > 100 | 5.5 | 16.2 | ~16.2 | significantly reduced cell death; also recorded: nearly eliminating CPE | above 6.25 μM | slightly lower activity | IC50 ([2]; LR7, supplementary CSV, decimal comma, read-out: IC50 (MHV)): 11.3 µM; reduction in SARS-CoV-2 viral titers (SARS-CoV-2; 25 μM, Vero cells): highest level of activity
